# Experimental data reported in article PMC12684313, “Controlled Dual Activation of Rhenium(I) Photosensitizers and Profluorophores/Prodrugs via a Dissociative Bioorthogonal Tetrazine–Isonitrile Reaction” (Angewandte Chemie (International Ed. in English), 2025).
# Where two headings read alike, the source gives them in different places.
# What was measured:
# HeLa cells = assay: MTT assay, (photo)cytotoxicity toward HeLa cells; format: cell-based
# Procedure: (§1) HeLa and HEK-293 cells were seeded in a 96-well flat-bottomed microplate (≈ 10,000 cells per well) in growth medium (100 µL) and incubated at 37°C under a 5% CO2 atmosphere for […]
# (§2) 48 h. The growth medium was removed, and then incubated with either fresh growth medium or complexes 1a – 3a, with concentrations ranging from 10–5 to 10−8 M, in growth medium/DMSO (99:1, v/v) at 37°C for 3 h. The growth medium was removed and replaced with either fresh growth medium or ICPrc-Bn (200 µM) in growth medium/DMSO (99:1, v/v) at 37°C for 4 h. Wells containing untreated cells were used as a blank control. Wells containing cells treated with ICPrc-Bn (200 µM) alone for 4 h were used as a complex-free control. For evaluation of photocytotoxicity, the treated cells were incubated in phenol red-free growth medium (100 µL). One of the microplates was irradiated at 365 nm (5 mW cm−2) with an LED cellular photocytotoxicity irradiator (PURI Materials, Shenzhen, China) for […], whereas the other one was kept in the dark for 10 min. The cells were then incubated in fresh growth medium (100 µL) in the dark for 24 h. A solution containing MTT in PBS (10 µL, 5 mg mL−1) and fresh growth medium (90 µL) was added to each well. The microplate was incubated at 37°C for 4 h. The growth medium was removed, and DMSO (200 µL) was added to each well.
# (§3) After 20 min, the absorbance of the solutions at 570 nm was measured with a Multiskan SkyHigh Microplate Spectrophotometer (Thermo Scientific). The IC50 values of the complex were determined from the dose dependence of surviving cells after the treatment using the OriginPro 8.0 software package. For dual-release studies, the cells were incubated with complex 3a, with concentrations ranging from 10–5 to 10−8 M, in growth medium/DMSO (99:1, v/v) at 37°C for 3 h, and replaced with either fresh growth medium or ICPrc-Dox (10 or 50 µM) in growth medium/DMSO (99:1, v/v) at 37°C for 4 h. Wells containing cells treated with ICPrc-Dox (10 or 50 µM) alone for 4 h were used as a complex-free control. Wells containing cells treated with cisplatin (3 h) or Dox (4 h), with concentrations ranging from 10–5 to 10−8 M, in growth medium/DMSO (99:1, v/v) at 37°C were used as positive controls. Furthermore, to evaluate the maximum therapeutic effect of the dual release, concentrations of complex 3b and Dox were serially diluted in a 1:1 ratio to serve as a reference, assuming similar cellular uptake […]
# (§4) of complex 3a with 3b and ICPrc-Dox with Dox. Briefly, HeLa cells were incubated with complex 3b, with concentrations ranging from 10–5 to 10−8 M, in growth medium/DMSO (99:1, v/v) at 37°C for 3 h, and replaced with either fresh growth medium or Dox, with concentrations ranging from 10–5 to 10−8 M, in growth medium/DMSO (99:1, v/v) at 37°C for 4 h.
# HEK‐293 cells = assay: MTT assay, (photo)cytotoxicity toward HEK-293 cells; format: cell-based
# Procedure: as §1, §2
# (§5) After 20 min, the absorbance of the solutions at 570 nm was measured with a Multiskan SkyHigh Microplate Spectrophotometer (Thermo Scientific). The IC50 values of the complex were determined from the dose dependence of surviving cells after the treatment using the OriginPro 8.0 software package. […]
# [1] = MTT assay, (photo)cytotoxicity toward HeLa cells; format: cell-based; details: human, HeLa cells, read-out: cell viability
# Procedure: as §1, §2, §3, §4
# [2] = MTT assay, (photo)cytotoxicity toward HEK-293 cells; format: cell-based; details: human, HEK-293 cells, read-out: cell viability
# Procedure: as §1, §2, §5
# [3] = Stability of ICPr/ICPrc derivatives in serum (HPLC); format: in vitro ADME; details: 25 µM in 25% FBS, 37 °C, dark
# Procedure: was incubated with ICPr-coum (80 µM) in aerated McIlvaine buffer (pH 7.4 or 5.0)/CH3CN (4:1, v/v) at 37°C. The reactions at different time points were quenched by the addition of 900 µL of cold H2O/CH3CN (1:1, v/v) and then analyzed by RP-HPLC. The HPLC analysis was conducted following the elution conditions specified for the reaction kinetic studies. The release yields were plotted against time. The half-lives (t1/2) were defined as the time required for the concentration of the reactant to decrease by half of its initial quantity, obtained through an exponential fit of the curve. The release yields were defined as the quantity of the final product, umbelliferone, liberated in the reaction. Furthermore, to evaluate the effect of ether versus carbamate linkages within the ICPr/ICPrc moiety on release kinetics, the half-lives of ICPr-coum, ICPr-fluorescein, and ICPrc-Dox were determined by HPLC analyses. Equimolar mixtures of complex 3a (50 µM) and each ICPr/ICPrc derivative (50 µM) were incubated in aerated McIlvaine buffer (pH 7.4)/DMSO (4:1, v/v) at 37°C. The reactions at different time points were quenched by the addition of 900 µL of cold H2O/CH3CN (1:1, v/v) and then […]
# Stability of ICPr/ICPrc Derivatives in Serum
# ICPr-fluorescein or ICPrc-Dox (25 µM) was incubated in 25% FBS at 37 °C in the dark for 48 h. […]
# [4] = 1O2 generation quantum yield by ABDA assay in McIlvaine buffer; format: physicochemical; details: 298 K
# Procedure: The ^1O2 generation efficiencies of the complexes were evaluated by monitoring the emission band of ^1O2 centered at around 1270 nm^[ [34], [35] ^] in aerated CH3CN. […] Considering the pH‐dependent emission properties of complexes 1b–3b, we believe that their ^1O2 photosensitization efficiencies would also be influenced by pH. Taking complex 3b as an example, its ^1O2 generation efficiency was evaluated in aerated McIlvaine buffer solutions at various pH levels by the 9,10‐anthracenediyl‐bis(methylene)dimalonic acid (ABDA) assay.^[ [36] ^] […] Thus, the TzMe complexes are anticipated to function as pH‐sensitive phosphorogenic bioorthogonal probes, enabling simultaneous detection and photodynamic therapy in lysosomal compartments (pH ≈ 4.5–5.0)^[ [37], [38] ^] and acidic TME. […]
# where the subscripts s and r refer to the sample and reference solutions, respectively, Φ is 1O2 quantum yield, m is the slope of a linear fit of the change of absorbance at 378 nm against the irradiation time, B is 1 – 10–AL, A is absorbance at the excitation wavelength, and L is path […]
# To confirm the liberation of ICPr/ICPrc -caged compounds during the reaction, the concurrent release of compounds from their respective tetrazine and ICPr/ICPrc caging groups was studied by RP-HPLC analysis. Complex 3a (50 µM) and ICPr -coum (40 µM) were incubated in aerated McIlvaine buffer (pH 7.4)/DMSO (4:1, v/v) at 37°C for 18 h. The reaction mixture was subjected to HPLC analysis. The HPLC analysis was performed using an Agilent analytical column (ZORBAX Eclipse Plus C18 column: 4.6 × 150 mm, 5 µm) with a linear gradient of 0 − 100% solvent B over 12 min and a flow rate of 1 mL min −1. The emission was monitored at the emission peak maxima of the released products, umbelliferone (also known as 7 - hydroxycoumarin) (λex = 350 nm, λem = 460 nm) and complex 3b (λex = 350 nm, λem = 562 nm). […] The emission spectrum was recorded on a HORIBA FluoroMax-4 spectrofluorometer. […] The reaction was monitored by HPLC analyses after incubation for 4 and 24 h.
# [5] = 1O2 generation quantum yield from 1O2 emission at around 1270 nm; format: physicochemical; details: aerated CH3CN, 298 K; λex = 350 nm; reference phenalenone
# Procedure: The ^1O2 generation efficiencies of the complexes were evaluated by monitoring the emission band of ^1O2 centered at around 1270 nm^[ [34], [35] ^] in aerated CH3CN. […] Considering the pH‐dependent emission properties of complexes 1b–3b, we believe that their ^1O2 photosensitization efficiencies would also be influenced by pH. Taking complex 3b as an example, its ^1O2 generation efficiency was evaluated in aerated McIlvaine buffer solutions at various pH levels by the 9,10‐anthracenediyl‐bis(methylene)dimalonic acid (ABDA) assay.^[ [36] ^] […] Thus, the TzMe complexes are anticipated to function as pH‐sensitive phosphorogenic bioorthogonal probes, enabling simultaneous detection and photodynamic therapy in lysosomal compartments (pH ≈ 4.5–5.0)^[ [37], [38] ^] and acidic TME.
# [6] = – ICPrc‐Bn, irradiation at 365 nm (5 mW cm−2) for 5 min, read-out: IC50,light
# [7] = ICPrc‐Bn (200 µM) alone for 4 h, subsequently irradiated
# [8] = ICPrc‐Dox (10 or 50 µM) alone, dark and irradiation
compound,measurement,setting,value
"N.N.[Cl][Pt][Cl] [Cisplatin, cisplatin, reference compound]",IC50,"HeLa cells; – ICPrc‐Bn (complex 3 h, fresh medium 4 h; cisplatin 3 h), dark, read-out: IC50,dark",> 50 µM
same,IC50,HeLa cells; [6],> 50 µM
same,IC50,"HEK‐293 cells; – ICPrc‐Bn, dark, read-out: IC50,dark",> 50 µM
same,IC50,HEK‐293 cells; [6],> 50 µM
"COc1cccc2c1C(=O)c1c(O)c3c(c(O)c1C2=O)C[C@@](O)(C(=O)CO)C[C@@H]3O[C@H]1C[C@H](N)[C@H](O)[C@H](C)O1 [Dox, doxorubicin, reference compound]",IC50,"HeLa cells; Homo sapiens, Table 2, no ICPrc‐Dox (3a 3 h then fresh medium 4 h; Dox 4 h), dark, read-out: IC50,dark",5.8 ± 0.6 µM
same,IC50,"HeLa cells; Homo sapiens, light or radiation study, 5 min, Table 2, no ICPrc‐Dox, irradiation at 365 nm (5 mW cm−2) for 5 min, read-out: IC50,light",5.3 ± 0.6 µM
same,"PI (IC50,dark/IC50,light)","HeLa cells; Table 2, no ICPrc‐Dox",1
same,IC50,"HEK‐293 cells; Homo sapiens, HEK293, Table 2, no ICPrc‐Dox, dark, read-out: IC50,dark",> 50 µM
same,IC50,"HEK‐293 cells; Homo sapiens, HEK293, light or radiation study, 5 min, Table 2, no ICPrc‐Dox, irradiation at 365 nm (5 mW cm−2) for 5 min, read-out: IC50,light",43 ± 2 µM
same,"PI (IC50,dark/IC50,light)","HEK‐293 cells; Table 2, no ICPrc‐Dox",> 1
"[C-]#[N+]CCCOC(=O)NCc1ccccc1 [ICPrc‐Bn, 3‐isocyanopropyl benzylcarbamate, reference compound]","viability at 4 h, 200 µM",[1]; [7],> 98%
same,"viability at 4 h, 200 µM",[2]; [7],> 98%
"[C-]#[N+]CCCOC(=O)NC1CC(OC2CC(O)(C(=O)CO)Cc3c(O)c4c(c(O)c32)C(=O)c2c(OC)cccc2C4=O)OC(C)C1O (centres unmarked) [ICPrc‐Dox, N-(3-isocyanopropyl-1-carbamoyl)doxorubicin, reference compound]",viability at 4 h,[1]; [8],> 98%
same,time stable in serum,[3],over 48 h
same,viability at 4 h,[2]; [8],> 98%
[C-]#[N+]CCCOc1ccc2c(-c3ccccc3C(=O)O)c3ccc(=O)cc-3oc2c1 [ICPr‐fluorescein],time stable in serum,[3],at least 48 h
"O=S(=O)([O-])C(F)(F)F.O=[C]=[Re-2]1(=[C]=O)(=[C]=O)([n+]2cccc(O)c2)[n+]2ccc(-c3ccccc3)c3ccc4c(-c5ccccc5)cc[n+]1c4c32 [complex 3b, [Re(N^N)(CO)3(py‐OH)](CF3SO3)]","PI (IC50,dark/IC50,light)",HeLa cells; Table S10,6
same,IC50,"HeLa cells; Table S10, 3b 3 h then fresh medium or Dox (1:1 ratio) 4 h, dark, read-out: IC50,dark",29 µM
same,IC50,"HeLa cells; Table S10, 3b 3 h then fresh medium or Dox (1:1 ratio) 4 h, irradiation at 365 nm (5 mW cm−2) for 5 min, read-out: IC50,light",5.1 µM
same,1O2 generation quantum yield (ΦΔ),"[4]; aerated McIlvaine buffer pH 3.0/CH3CN (4:1, v/v)",0.24
same,1O2 generation quantum yield (ΦΔ),"[4]; aerated McIlvaine buffer pH 5.0/CH3CN (4:1, v/v)",0.12
same,1O2 generation quantum yield (ΦΔ),"[4]; aerated McIlvaine buffer pH 7.4/CH3CN (4:1, v/v)",Negligible
same,1O2 generation quantum yield (ΦΔ),[5],0.63
